Here are results for 1 molecule from patent US20230000876A1, “TREATING CANCERS WITH A CYCLIN-DEPENDENT KINASE INHIBITOR” (Nuvation Bio Inc., priority 2021, published 2023).

Where two headings read alike, the source gives them in different places.

This data set in a line: Pharmacokinetics and brain distribution after single oral dose, mice. The format is in vivo, male CD1 mice. As to the method:
The pharmacokinetics and brain distribution in maleCD1 mice and Sprague-Dawley rats following a single oral (PO) dose was evaluated. The compound of formula (I) was administered once at 10 mg/kg to mice and at 1, 10, 30, and 100 mg/kg to rats. All doses, compound of formula (I) concentrations, and derived PK parameters are expressed as the free base of the compound of formula (I).
The in-life portion of these studies was performed by Alliance Pharma (Malvern, Pa.) according to Protocols 200107-02 (mice) and 1910158-02 (rats). Animals were assigned randomly to the dose groups and were fasted 12 hours prior to dosing. Water was available ad libitum. The compound of formula (I) (as an HCl salt) was given to male CD1 mice at 10 mg/kg single PO dose, while in Sprague-Dawley rats, the doses were 1, 10, 30, and 100 mg/kg. In both studies, the compound of formula (I) was formulated in 0.5% hydroxypropyl methylcellulose (HPMC)/0.2% Tween 80 and the dosing volume was 5 mL/kg for all dose groups.
Whole blood was collected at 2, 4, 6, and 12 hours post dose from mice and predose and 1, 2, 4, 8, 12, and 24 hours post dose from rats into tubes containing dipotassium ethylenediaminetetraacetic acid (K2EDTA). Blood was obtained from 3 mice and 4 rats per time-point per dose level. The blood samples were processed into plasma analyzed at Alliance Pharma using the method as described below.
The brain tissue was collected from mice at 2, 4, 6, and 12 hours post dose and was collected from rats at 6 hours post dose given 1, 10, 30, or 100 mg/kg of the compound of formula (I). Brain tissue was obtained from 3 mice per time-point at the 10 mg/kg dose level and 4 rats per dose level at the 6-hour post dose time-point.
Brain tissue was rinsed by phosphate-buffered saline (PBS) buffer immediately after harvest, weighed, and mixed with solvent (MeOH:H2O [volume over volume of 20:80]) with a ratio of tissue to solvent of 1:4 (weight over volume). […] After homogenization, the homogenate was aliquoted out for sample analysis.
The concentrations of the compound of formula (I) in the plasma and brain homogenate were determined versus a calibration curve prepared in plasma and naïve brain homogenate, respectively. Samples were deproteinized with acetonitrile containing tolbutamide as internal standard. After centrifugation, the supernatants were analyzed by liquid chromatography with tandem mass spectrometry (LC-MS/MS). Chromatography was performed with a Zorbax SB-C18 (50×2.1 mm, […]) column under gradient conditions described in Table 22. Mobile Phase A (0.1% formic acid [FA] in water) and Mobile Phase B (0.1% FA in acetonitrile) were delivered as a flow rate of 0.8 mL/min. LC-MS/MS was performed using a positive TurboIonSpray® interface on a SciexAPI 4000 and multiple-reaction monitoring (MRM) over a concentration range of 1 ng/mL to 1000 (rats) or 2000 (mice) ng/mL for the plasma and brain homogenate samples.
The mean plasma concentration-time data of the compound of formula (I) was used to determine the pharmacokineticparameters by standard noncompartmental methods using Phoenix® WinNonlin (version 8.2.0; Certara, Princeton, N.J.). Graphs were plotted in Prism® (version 2.3.0; GraphPad, San Diego, Calif.). Concentrations were rounded to 3 significant figures.

Turning to `CC(C)N1CCOc2c(F)cc(-c3nc(Nc4ccc(C5CCN(C)CC5)cn4)ncc3F)cc21` [Compound (I), 5-fluoro-4-(8-fluoro-4-isopropyl-3,4-dihydro-2H-benzo[b][1,4]oxazin-6-yl)-N-(5-(1-methylpiperidin-4-yl)pyridin-2-yl)pyrimidin-2-amine], the “Half-life in brain versus plasma” value (in vivo animal models, oral administration) is “longer half-life in the brain than in the plasma”. For the same molecule, the Kp at 2 h (male, CD1, mouse, brain, po, 10 mg/kg, mice, single PO 10 mg/kg, 2 h, read-out: Brain:Plasma Ratio, mean (SD)) stood at 1.7. Besides, the Kp at 4 h (male, CD1, mouse, brain, po, 10 mg/kg, mice, single PO 10 mg/kg, 4 h, read-out: Brain:Plasma Ratio, mean (SD)) was found to be 2.1. In addition, the Kp at 6 h (male, CD1, mouse, brain, po, 10 mg/kg, mice, single PO 10 mg/kg, 6 h, read-out: Brain:Plasma Ratio, mean (SD)) worked out at 1.9. In addition, the Kp at 12 h (male, CD1, mouse, brain, po, 10 mg/kg, mice, single PO 10 mg/kg, 12 h, read-out: Brain:Plasma Ratio, mean (SD)) amounted to 3.3; the Kp at 12 h (male, CD1, mouse, brain, po, 10 mg/kg, mice, single PO 10 mg/kg, at 2, 4, 6, and 12 hours post-dose, read-out: Brain-to-plasma concentration ratio) was more than 1.5. Besides, the concentration at 2 h was 309 ng/mL (male, CD1, mouse, brain, mice, single PO 10 mg/kg, 2 h, read-out: Brain Conc) and 187 ng/mL (male, CD1, mouse, plasma, mice, single PO 10 mg/kg, 2 h, read-out: Plasma Conc). For the same molecule, the concentration at 4 h reads like this: (male, CD1, mouse, brain, mice, single PO 10 mg/kg, 4 h, read-out: Brain Conc) 436 ng/mL; (male, CD1, mouse, plasma, mice, single PO 10 mg/kg, 4 h, read-out: Plasma Conc) 209 ng/mL. For the same molecule, the concentration at 6 h was 464 ng/mL (male, CD1, mouse, brain, mice, single PO 10 mg/kg, 6 h, read-out: Brain Conc) and 247 ng/mL (male, CD1, mouse, plasma, mice, single PO 10 mg/kg, 6 h, read-out: Plasma Conc). The concentration at 12 h is, setting by setting: (male, CD1, mouse, brain, mice, single PO 10 mg/kg, 12 h, read-out: Brain Conc) 345 ng/mL; (male, CD1, mouse, plasma, mice, single PO 10 mg/kg, 12 h, read-out: Plasma Conc) 105 ng/mL.
